From PubChem BioAssay AID2060618 (Molecular Pharmacology Branch, DTP, NCI, 2025)
Values belong to the compound of their own block, whether it stands above or below them.

Tested on: 454973-116-R2-J3-PDC spheroids, percent test/control viability
Assay: Anticancer human tumor 454973-116-R2-J3-PDC patient-derived pancreatic carcinoma cell line growth inhibition [CLK]
Conditions: spheroids with HUVEC and MSC; for IC50: curve of first compound; for viability, T/C: stronger effect = lower value
Procedure, shortened: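 Patient-derived tumor cells grown as complex spheroids with HUVEC endothelial cells and mesenchymal stem cells, treated with drug combinations. Concentrations descend in half-log steps from near clinical Cmax, or from 10 microM if Cmax unknown.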

[1] = second compound 0.0316 µM, first compound 0.0316 µM
[2] = second compound 0.0316 µM, first compound 0.1 µM
[3] = second compound 0.0316 µM, first compound 0.316 µM
[4] = second compound 0.0316 µM, first compound 1 µM
[5] = second compound 0.0316 µM, first compound 3.16 µM
[6] = second compound 0.0316 µM, first compound 10 µM
[7] = second compound 0.1 µM, first compound 0.0316 µM
[8] = second compound 0.1 µM, first compound 0.1 µM
[9] = second compound 0.1 µM, first compound 0.316 µM
[10] = second compound 0.1 µM, first compound 1 µM
[11] = second compound 0.1 µM, first compound 3.16 µM
[12] = second compound 0.1 µM, first compound 10 µM
[13] = second compound 0.316 µM, first compound 0.0316 µM
[14] = second compound 0.316 µM, first compound 0.1 µM
[15] = second compound 0.316 µM, first compound 0.316 µM
[16] = second compound 0.316 µM, first compound 1 µM
[17] = second compound 0.316 µM, first compound 3.16 µM
[18] = second compound 0.316 µM, first compound 10 µM
[19] = second compound 1 µM, first compound 0.0316 µM
[20] = second compound 1 µM, first compound 0.1 µM
[21] = second compound 1 µM, first compound 0.316 µM
[22] = second compound 1 µM, first compound 1 µM
[23] = second compound 1 µM, first compound 3.16 µM
[24] = second compound 1 µM, first compound 10 µM
[25] = second compound 3.16 µM, first compound 0.0316 µM
[26] = second compound 3.16 µM, first compound 0.1 µM
[27] = second compound 3.16 µM, first compound 0.316 µM
[28] = second compound 3.16 µM, first compound 1 µM
[29] = second compound 3.16 µM, first compound 3.16 µM
[30] = second compound 3.16 µM, first compound 10 µM
[31] = second compound 10 µM, first compound 0.0316 µM
[32] = second compound 10 µM, first compound 0.1 µM
[33] = second compound 10 µM, first compound 0.316 µM
[34] = second compound 10 µM, first compound 1 µM
[35] = second compound 10 µM, first compound 3.16 µM
[36] = second compound 10 µM, first compound 10 µM
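Also: spheroids exposed to compounds for 7 days before readout.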

IC50 (second compound 0.0316 µM): 6830 nM
IC50 (second compound 0.1 µM): 6950 nM
IC50 (second compound 0.316 µM): < 31.6 nM
IC50 (second compound 1 µM): < 31.6 nM
IC50 (second compound 3.16 µM): < 31.6 nM
IC50 (second compound 10 µM): < 31.6 nM
SMILES: CC1(C)CCC(CN2CCN(c3ccc(C(=O)NS(=O)(=O)c4ccc(NCC5CCOCC5)c([N+](=O)[O-])c4)c(Oc4cnc5[nH]ccc5c4)c3)CC2)=C(c2ccc(Cl)cc2)C1 + CNC(=O)c1ccc(Nc2nc(OC3CCCC3)c3c(-c4ccc5nc(C)oc5c4)c[nH]c3n2)c(OC)c1
viability, T/C [1]: 95.9%
viability, T/C [2]: 94.7%
viability, T/C [3]: 103%
viability, T/C [4]: 102%
viability, T/C [5]: 112%
viability, T/C [6]: 24.5%
viability, T/C [7]: 96.3%
viability, T/C [8]: 98.8%
viability, T/C [9]: 93.9%
viability, T/C [10]: 94%
viability, T/C [11]: 102%
viability, T/C [12]: 28.1%
viability, T/C [13]: 37.5%
viability, T/C [14]: 38.5%
viability, T/C [15]: 37.6%
viability, T/C [16]: 40.3%
viability, T/C [17]: 32.5%
viability, T/C [18]: 21.1%
viability, T/C [19]: 27.2%
viability, T/C [20]: 26.2%
viability, T/C [21]: 28.3%
viability, T/C [22]: 28.4%
viability, T/C [23]: 28.3%
viability, T/C [24]: 23.4%
viability, T/C [25]: 29.2%
viability, T/C [26]: 25.2%
viability, T/C [27]: 26.9%
viability, T/C [28]: 23.9%
viability, T/C [29]: 27.6%
viability, T/C [30]: 22.3%
viability, T/C [31]: 26.6%
viability, T/C [32]: 26.6%
viability, T/C [33]: 24.4%
viability, T/C [34]: 21.8%
viability, T/C [35]: 26.1%
viability, T/C [36]: 21.6%

IC50 (second compound 0.0316 µM): 330 nM
IC50 (second compound 0.1 µM): 411 nM
IC50 (second compound 0.316 µM): 61.9 nM
IC50 (second compound 1 µM): < 9.49 nM
IC50 (second compound 3.16 µM): < 9.49 nM
IC50 (second compound 10 µM): < 9.49 nM
SMILES: NC(=O)C(=Cn1cnc(-c2cc(C(F)(F)F)cc(C(F)(F)F)c2)n1)c1cncnc1 + CNC(=O)c1ccc(Nc2nc(OC3CCCC3)c3c(-c4ccc5nc(C)oc5c4)c[nH]c3n2)c(OC)c1
viability, T/C (second compound 0.0316 µM, first compound 0.00949 µM): 115%
viability, T/C (second compound 0.0316 µM, first compound 0.03 µM): 92.4%
viability, T/C (second compound 0.0316 µM, first compound 0.0949 µM): 66.3%
viability, T/C (second compound 0.0316 µM, first compound 0.3 µM): 55%
viability, T/C (second compound 0.0316 µM, first compound 0.949 µM): 35.7%
viability, T/C (second compound 0.0316 µM, first compound 3 µM): 8.15%
viability, T/C (second compound 0.1 µM, first compound 0.00949 µM): 105%
viability, T/C (second compound 0.1 µM, first compound 0.03 µM): 96.4%
viability, T/C (second compound 0.1 µM, first compound 0.0949 µM): 71%
viability, T/C (second compound 0.1 µM, first compound 0.3 µM): 55.3%
viability, T/C (second compound 0.1 µM, first compound 0.949 µM): 37.2%
viability, T/C (second compound 0.1 µM, first compound 3 µM): 11.1%
viability, T/C (second compound 0.316 µM, first compound 0.00949 µM): 54.1%
viability, T/C (second compound 0.316 µM, first compound 0.03 µM): 55.3%
viability, T/C (second compound 0.316 µM, first compound 0.0949 µM): 47.9%
viability, T/C (second compound 0.316 µM, first compound 0.3 µM): 38.1%
viability, T/C (second compound 0.316 µM, first compound 0.949 µM): 28.3%
viability, T/C (second compound 0.316 µM, first compound 3 µM): 4.69%
viability, T/C (second compound 1 µM, first compound 0.00949 µM): 35.7%
viability, T/C (second compound 1 µM, first compound 0.03 µM): 31.3%
viability, T/C (second compound 1 µM, first compound 0.0949 µM): 28.1%
viability, T/C (second compound 1 µM, first compound 0.3 µM): 18.8%
viability, T/C (second compound 1 µM, first compound 0.949 µM): 12.8%
viability, T/C (second compound 1 µM, first compound 3 µM): 1%
viability, T/C (second compound 3.16 µM, first compound 0.00949 µM): 31.4%
viability, T/C (second compound 3.16 µM, first compound 0.03 µM): 30.6%
viability, T/C (second compound 3.16 µM, first compound 0.0949 µM): 26.1%
viability, T/C (second compound 3.16 µM, first compound 0.3 µM): 19.3%
viability, T/C (second compound 3.16 µM, first compound 0.949 µM): 5.51%
viability, T/C (second compound 3.16 µM, first compound 3 µM): 0.93%
viability, T/C (second compound 10 µM, first compound 0.00949 µM): 32.6%
viability, T/C (second compound 10 µM, first compound 0.03 µM): 25.8%
viability, T/C (second compound 10 µM, first compound 0.0949 µM): 22.5%
viability, T/C (second compound 10 µM, first compound 0.3 µM): 19.9%
viability, T/C (second compound 10 µM, first compound 0.949 µM): 4.71%
viability, T/C (second compound 10 µM, first compound 3 µM): 0.78%

IC50 (second compound 0.0316 µM): 1620 nM
IC50 (second compound 0.1 µM): 1660 nM
IC50 (second compound 0.316 µM): < 31.6 nM
IC50 (second compound 1 µM): < 31.6 nM
IC50 (second compound 3.16 µM): < 31.6 nM
IC50 (second compound 10 µM): < 31.6 nM
SMILES: Nc1ccccc1NC(=O)c1ccc(CNC(=O)OCc2cccnc2)cc1 + CNC(=O)c1ccc(Nc2nc(OC3CCCC3)c3c(-c4ccc5nc(C)oc5c4)c[nH]c3n2)c(OC)c1
viability, T/C [1]: 97.2%
viability, T/C [2]: 102%
viability, T/C [3]: 87.2%
viability, T/C [4]: 69.4%
viability, T/C [5]: 25.1%
viability, T/C [6]: 5.57%
viability, T/C [7]: 107%
viability, T/C [8]: 95.9%
viability, T/C [9]: 91.8%
viability, T/C [10]: 69%
viability, T/C [11]: 26.8%
viability, T/C [12]: 6.74%
viability, T/C [13]: 46.9%
viability, T/C [14]: 40.4%
viability, T/C [15]: 42.2%
viability, T/C [16]: 31.3%
viability, T/C [17]: 19%
viability, T/C [18]: 5.37%
viability, T/C [19]: 29.1%
viability, T/C [20]: 27.1%
viability, T/C [21]: 23.6%
viability, T/C [22]: 28.6%
viability, T/C [23]: 16.8%
viability, T/C [24]: 3.41%
viability, T/C [25]: 28.7%
viability, T/C [26]: 30.1%
viability, T/C [27]: 24.4%
viability, T/C [28]: 27.1%
viability, T/C [29]: 17.2%
viability, T/C [30]: 2.74%
viability, T/C [31]: 26.9%
viability, T/C [32]: 24.5%
viability, T/C [33]: 21.1%
viability, T/C [34]: 21.8%
viability, T/C [35]: 16.8%
viability, T/C [36]: 2.21%
